Laboratory results as given in patent US20230085307A1, “PYRIDAZINONE COMPOUND AND HERBICIDE” (NISSAN CHEMICAL CORPORATION, priority 2019, published 2023).

Columns and labels:
wild oat [1] = test: Test Example 5: herbicidal effect by foliage application, plastic box (Table 20, symbol I); format: in vivo, wild oat (Avena fatua); conditions: foliage application, 320 g/ha, 3 weeks after application
Summary of the method: (§1)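 Post-emergence foliar test in sterilized diluvial soil. Compound applied as water-diluted emulsion at a predetermined rate to 14-day-old plants; evaluation at three weeks.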

persian speedwell [2] = test: Test Example 5: herbicidal effect by foliage application, plastic box (Table 20, symbol R); format: in vivo, Persian speedwell (Veronica persica); conditions: foliage application, 320 g/ha, 3 weeks after application
Summary of the method: as §1

windgrass [3] = test: Test Example 5: herbicidal effect by foliage application, plastic box (Table 20, symbol L); format: in vivo, windgrass (Apera spica-venti); conditions: foliage application, 320 g/ha, 3 weeks after application
Summary of the method: as §1

barnyard grass [4] = test: Test Example 5: herbicidal effect by foliage application, plastic box (Table 20, symbol H); format: in vivo, barnyard grass (Echinochloa crus-galli); conditions: foliage application, 320 g/ha, 3 weeks after application
Summary of the method: as §1

southern crabgrass = test: Test Example 5: herbicidal effect by foliage application, plastic box (Table 20, symbol F); format: in vivo, southern crabgrass (Digitaria ciliaris); conditions: foliage application, 320 g/ha, 3 weeks after application
Summary of the method: as §1

Italian ryegrass [5] = test: Test Example 4: herbicidal effect by soil treatment (Table 19, symbol K); format: in vivo, Italian ryegrass (Lolium multiflorum); conditions: AAH 320 g/ha
Summary of the method: (§2)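 Scoring uses the grading scale of an earlier test, three weeks post-application. Treatment consists of spraying a diluted emulsion formulation across the surface of sterilized diluvial soil in which seeds are buried near 1.5 cm deep; boxes are kept in a greenhouse between 25° C. and 30° C.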

chickweed = test: Test Example 4: herbicidal effect by soil treatment (Table 19, symbol P); format: in vivo, common chickweed (Stellaria media); conditions: AAH 320 g/ha
Summary of the method: as §2

blackgrass [6] = test: Test Example 4: herbicidal effect by soil treatment (Table 19, symbol J); format: in vivo, blackgrass (Alopecurus myosuroides); conditions: AAH 320 g/ha
Summary of the method: as §2

barnyard grass [7] = test: Test Example 3: herbicidal effect by foliage application, Wagner pot (Table 18, symbol H); format: in vivo, barnyard grass (Echinochloa crus-galli); conditions: 320 g/ha
Summary of the method: (§3)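 Plants were sown in alluvial soil held under 0.1–0.5 cm standing water and grown 14 days in a greenhouse at 25–30 °C. An emulsifiable formulation, water-diluted to the set dose, was then sprayed onto the foliage, and effects were scored three weeks later using previously defined criteria.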

Chinese sprangletop = test: Test Example 3: herbicidal effect by foliage application, Wagner pot (Table 18, symbol D); format: in vivo, chinese sprangletop (Leptochloa chinensis); conditions: 320 g/ha
Summary of the method: as §3

lambsquarters = test: Test Example 5: herbicidal effect by foliage application, plastic box (Table 20, symbol O); format: in vivo, lambsquarters (Chenopodium album); conditions: foliage application, 320 g/ha, 3 weeks after application
Summary of the method: as §1

persian speedwell [8] = test: Test Example 4: herbicidal effect by soil treatment (Table 19, symbol R); format: in vivo, Persian speedwell (Veronica persica); conditions: AAH 320 g/ha
Summary of the method: as §2

rice flat sedge = test: Test Example 3: herbicidal effect by foliage application, Wagner pot (Table 18, symbol E); format: in vivo, rice flat sedge (Cyperus iria); conditions: 320 g/ha
Summary of the method: as §3

velvetleaf = test: Test Example 5: herbicidal effect by foliage application, plastic box (Table 20, symbol M); format: in vivo, velvetleaf (Abutilon theophrasti); conditions: foliage application, 320 g/ha, 3 weeks after application
Summary of the method: as §1

blackgrass [9] = test: Test Example 5: herbicidal effect by foliage application, plastic box (Table 20, symbol J); format: in vivo, blackgrass (Alopecurus myosuroides); conditions: foliage application, 320 g/ha, 3 weeks after application
Summary of the method: as §1

green foxtail = test: Test Example 5: herbicidal effect by foliage application, plastic box (Table 20, symbol G); format: in vivo, green foxtail (Setaria viridis); conditions: foliage application, 320 g/ha, 3 weeks after application
Summary of the method: as §1

wild oat [10] = test: Test Example 4: herbicidal effect by soil treatment (Table 19, symbol I); format: in vivo, wild oat (Avena fatua); conditions: AAH 320 g/ha
Summary of the method: as §2

Italian ryegrass [11] = test: Test Example 5: herbicidal effect by foliage application, plastic box (Table 20, symbol K); format: in vivo, Italian ryegrass (Lolium multiflorum); conditions: foliage application, 320 g/ha, 3 weeks after application
Summary of the method: as §1

windgrass [12] = test: Test Example 4: herbicidal effect by soil treatment (Table 19, symbol L); format: in vivo, windgrass (Apera spica-venti); conditions: AAH 320 g/ha
Summary of the method: as §2

COc1nn(C)c(=O)c(-c2c(-c3cc4ccccc4s3)sc3ccccc23)c1O [1-196]
effect on wild oat (I) (wild oat [1]): 0 (Herbicidal rate of 5% or less (almost no effect))
effect on persian speedwell (R) (persian speedwell [2]): 5 (Herbicidal rate of 90% or more (almost completely withered))
effect on windgrass (L) (windgrass [3]): 0 (Herbicidal rate of 5% or less (almost no effect))
effect on barnyard grass (H) (barnyard grass [4]): 0 (Herbicidal rate of 5% or less (almost no effect))
effect on southern crabgrass (F) (southern crabgrass): 0 (Herbicidal rate of 5% or less (almost no effect))
K: Italian ryegrass, herbicidal effect rating (Italian ryegrass [5]): 4 (Herbicidal rate of 70% or more and less than 90%)
P: chickweed, herbicidal effect rating (chickweed): 5 (Herbicidal rate of 90% or more (almost completely withered))
J: blackgrass, herbicidal effect rating (blackgrass [6]): 0 (Herbicidal rate of 5% or less (almost no effect))
herbicidal effect on H (barnyard grass), rating 0-5 (barnyard grass [7]): 3 (Herbicidal rate of 40% or more and less than 70%)
herbicidal effect on D (Chinese sprangletop), rating 0-5 (Chinese sprangletop): 0 (Herbicidal rate of 5% or less (almost no effect))
effect on lambsquarters (O) (lambsquarters): 5 (Herbicidal rate of 90% or more (almost completely withered))
R: persian speedwell, herbicidal effect rating (persian speedwell [8]): 5 (Herbicidal rate of 90% or more (almost completely withered))
herbicidal effect on E (rice flat sedge), rating 0-5 (rice flat sedge): 5 (Herbicidal rate of 90% or more (almost completely withered))
effect on velvetleaf (M) (velvetleaf): 3 (Herbicidal rate of 40% or more and less than 70%)
effect on blackgrass (J) (blackgrass [9]): 0 (Herbicidal rate of 5% or less (almost no effect))
effect on green foxtail (G) (green foxtail): 0 (Herbicidal rate of 5% or less (almost no effect))
I: wild oat, herbicidal effect rating (wild oat [10]): 0 (Herbicidal rate of 5% or less (almost no effect))
effect on Italian ryegrass (K) (Italian ryegrass [11]): 3 (Herbicidal rate of 40% or more and less than 70%)
L: windgrass, herbicidal effect rating (windgrass [12]): 0 (Herbicidal rate of 5% or less (almost no effect))
